According to ChEMBL document CHEMBL1156679, “Inhibition of immune complex-mediated neutrophil oxidative metabolism: a pharmacophore model for 3-phenylcoumarin derivatives using GRIND-based 3D-QSAR and 2D-QSAR procedures” (Eur J Med Chem, 2008):

Tests used:
[1] = test system: Neutrophil; assay: Inhibition of immune complex-stimulated neutrophil oxidative metabolism in New Zealand white rabbit neutrophils assessed as ROS generation at 50 uM after 30 mins by lucigenin enhanced chemiluminescence assay; type: functional; settings: Oryctolagus cuniculus, 0.5 h
[2] = test system: Neutrophil; assay: Inhibition of immune complex-stimulated neutrophil oxidative metabolism in New Zealand white rabbit neutrophils assessed as ROS generation at 50 uM after 30 mins by luminol enhanced chemiluminescence assay; type: functional; settings: Oryctolagus cuniculus, 0.5 h
[3] = test system: Neutrophil; assay: Inhibition of immune complex-stimulated neutrophil oxidative metabolism in New Zealand white rabbit neutrophils assessed as ROS generation after 30 mins by lucigenin enhanced chemiluminescence assay; type: functional, cell-based; settings: Oryctolagus cuniculus, 0.5 h
[4] = test system: Neutrophil; assay: Inhibition of immune complex-stimulated neutrophil oxidative metabolism in New Zealand white rabbit neutrophils assessed as ROS generation after 30 mins by luminol enhanced chemiluminescence assay; type: functional, cell-based; settings: Oryctolagus cuniculus, 0.5 h
[5] = Cytotoxicity against New Zealand white rabbit neutrophils assessed as cell viability at 50 uM after 30 mins by trypan blue exclusion test; type: cell-based, Oryctolagus cuniculus, Neutrophil; settings: read-out: Activity
[6] = Cytotoxicity against New Zealand white rabbit neutrophils assessed as LDH release at 50 uM after 30 mins by spectrophotometry; type: cell-based, Oryctolagus cuniculus; settings: neutrophil, 0.5 h

| SMILES | IC50 ([3]; read-out: IC50) [µM] | IC50 ([3]; read-out: pIC50 (converted)) [µM] | IC50 ([4]; read-out: IC50) [µM] | IC50 ([4]; read-out: pIC50 (converted)) [µM] | inhibition at 50 µM [1] [%] | inhibition at 50 µM [2] [%] | viability at 0.5 h, 50 µM [5] [%] | Activity [6] [%] |
| --- | --- | --- | --- | --- | --- | --- | --- | --- |
| COC(=O)Oc1ccc(-c2cc3cc(OC(=O)OC)c(OC(=O)OC)cc3oc2=O)cc1OC(=O)OC | 0.4 | 0.363 | 0.4 | 0.389 | 99.9 | 99.9 | 88.8 | 20.7 |
| O=c1oc2ccc(O)cc2cc1-c1ccc2c(c1)OCO2 | 5.6 | 5.62 | > 50 | – | 83.5 | 23.2 | 93.8 | 9 |
| O=c1oc2cc(O)c(O)cc2cc1-c1ccc(O)c(O)c1 | 5.2 | 5.25 | 13.4 | 13.5 | 94.9 | 92.4 | 92 | 10.5 |
| COC(=O)Oc1ccc2cc(-c3ccc4c(c3)OCO4)c(=O)oc2c1 | 7.3 | ≥ 7.24 | > 50 | – | 67.1 | 7.9 | 94.3 | 13.8 |
| O=c1c(O)c(-c2ccc(O)c(O)c2)oc2cc(O)cc(O)c12 [QUERCETIN] | 4.7 | – | 2.4 | – | 99.9 | 99.9 | 93 | 10.9 |
| COC(=O)Oc1ccc2oc(=O)c(-c3ccc4c(c3)OCO4)cc2c1 | 5.4 | 5.37 | > 50 | – | 68 | 13.7 | 95.5 | 11.4 |
| COC(=O)Oc1ccc2oc(=O)c(-c3ccc(OC(=O)OC)c(OC(=O)OC)c3)cc2c1 | 1.8 | 1.78 | 2 | 2.04 | 97.5 | 92.3 | 93.3 | 9.3 |
| O=c1oc2ccc(O)cc2cc1-c1ccc(O)cc1 | 4.3 | 4.37 | 29.6 | 29.5 | 95.7 | 69.8 | 89.5 | 18.3 |
| O=c1oc2ccc(O)cc2cc1-c1cccc(O)c1 | 5.2 | 5.25 | > 50 | – | 94.1 | 31.7 | 93.8 | 11.2 |
| COC(=O)Oc1cccc(-c2cc3cc(OC(=O)OC)ccc3oc2=O)c1 | 6.9 | 6.92 | 21.7 | 21.9 | 82.1 | 66.3 | 94 | 9.3 |
| COC(=O)Oc1ccc2oc(=O)c(-c3ccccc3OC(=O)OC)cc2c1 | 2.6 | 2.57 | 2.9 | 2.88 | 96.5 | 94.6 | 90.3 | 14.6 |
| O=c1oc2ccc(O)cc2cc1-c1ccccc1O | 2.5 | 2.51 | 2.8 | 2.82 | 99.9 | 99 | 94.8 | 9.8 |
| O=c1oc2ccc(O)cc2cc1-c1ccc(O)c(O)c1 | 4.4 | 4.47 | 4.9 | 4.9 | 98.7 | 99.2 | 92.8 | 11.9 |
| COC(=O)Oc1ccc(-c2cc3cc(OC(=O)OC)ccc3oc2=O)cc1 | 4 | 3.98 | 27.4 | 27.5 | 92.5 | 60.3 | 92.5 | 11.6 |

More lines, main results first:

| IC50 ([3]; read-out: IC50) [µM] | IC50 ([3]; read-out: pIC50 (converted)) [µM] | IC50 ([4]; read-out: IC50) [µM] | IC50 ([4]; read-out: pIC50 (converted)) [µM] | SMILES | inhibition at 50 µM [1] [%] | inhibition at 50 µM [2] [%] | viability at 0.5 h, 50 µM [5] [%] | Activity [6] [%] |
| --- | --- | --- | --- | --- | --- | --- | --- | --- |
| 8 | 7.94 | > 50 | – | O=c1oc2ccc(O)cc2cc1-c1ccccc1 | 83.5 | 21.8 | 92.3 | 10.7 |
| > 50 | – | > 50 | – | O=c1oc2ccccc2cc1-c1ccc2c(c1)OCO2 | 5.7 | 10.1 | 96 | 11.9 |
| 0.7 | 0.724 | 0.7 | – | O=c1oc2cc(O)c(O)cc2cc1-c1ccc2c(c1)OCO2 | 99.6 | 99.8 | 93.2 | 15.3 |
| 8.6 | 8.51 | > 50 | – | O=c1oc2cc(O)ccc2cc1-c1ccc2c(c1)OCO2 | 79.4 | 17.5 | 94.3 | 11.1 |
| 7.4 | 7.41 | 31.2 | 30.9 | COC(=O)Oc1ccc2oc(=O)c(-c3ccccc3)cc2c1 | 80.5 | 50.5 | 93.8 | 11.3 |
| 0.7 | 0.692 | 0.7 | 0.661 | COC(=O)Oc1cc2cc(-c3ccc4c(c3)OCO4)c(=O)oc2cc1OC(=O)OC | 99 | 99.4 | 95 | 11.9 |
| > 50 | – | > 50 | – | O=c1oc2ccccc2cc1-c1ccccc1 | 27.9 | 9 | 90.3 | 17.1 |
